# Data from ChEMBL document CHEMBL2380212, “Synthesis, single crystal and antitumor activities of benzimidazole-quinazoline hybrids” (Bioorg Med Chem Lett, 2013).
# How the values were obtained:
# [1] = n-Octanol-phosphate buffer partition coefficient, log P of the compound at pH 7.4 by shake flask method; type: physicochemical
# [2] = test system: PC-3; assay: Cytotoxicity against human PC3 cells at 10 uM after 48 hrs by SRB assay; type: functional; conditions: PC-3, 48 h, read-out: GI
# [3] = test system: NCI-H226; assay: Cytotoxicity against human NCI-H226 cells at 10 uM after 48 hrs by SRB assay; type: functional; conditions: NCI-H226, 48 h, read-out: GI
# [4] = test system: SN12C; assay: Cytotoxicity against human SN12C cells at 10 uM after 48 hrs by SRB assay; type: functional; conditions: read-out: GI
# [5] = test system: SF-268; assay: Cytotoxicity against human SF268 cells at 10 uM after 48 hrs by SRB assay; type: functional; conditions: SF-268, 48 h, read-out: GI
# [6] = test system: RXF 393; assay: Cytotoxicity against human RXF393 cells at 10 uM after 48 hrs by SRB assay; type: functional; conditions: RXF 393, 48 h, read-out: GI
# [7] = test system: NCI-H23; assay: Cytotoxicity against human NCI-H23 cells at 10 uM after 48 hrs by SRB assay; type: functional; conditions: NCI-H23, 48 h, read-out: GI
# [8] = test system: 786-0; assay: Cytotoxicity against human 786-0 cells at 10 uM after 48 hrs by SRB assay; type: functional; conditions: 786-0, 48 h, read-out: GI
# [9] = test system: DU-145; assay: Cytotoxicity against human DU145 cells at 10 uM after 48 hrs by SRB assay; type: functional; conditions: DU-145, 48 h, read-out: GI
# [10] = test system: ACHN; assay: Cytotoxicity against human ACHN cells at 10 uM after 48 hrs by SRB assay; type: functional; conditions: read-out: GI
# [11] = test system: CAKI-1; assay: Cytotoxicity against human Caki1 cells at 10 uM after 48 hrs by SRB assay; type: functional; conditions: CAKI-1, 48 h, read-out: GI
# [12] = test system: NCI-H460; assay: Cytotoxicity against human NCI-H460 cells at 10 uM after 48 hrs by SRB assay; type: functional; conditions: NCI-H460, 48 h, read-out: GI
# [13] = test system: U-251; assay: Cytotoxicity against human U251 cells at 10 uM after 48 hrs by SRB assay; type: functional; conditions: U-251, 48 h, read-out: GI
# [14] = test system: UO-31; assay: Cytotoxicity against human UO31 cells at 10 uM after 48 hrs by SRB assay; type: functional; conditions: UO-31, 48 h, read-out: GI
# [15] = test system: SK-OV-3; assay: Cytotoxicity against human SKOV3 cells at 10 uM after 48 hrs by SRB assay; type: functional; conditions: SK-OV-3, 48 h, read-out: GI
# [16] = test system: RPMI-8226; assay: Cytotoxicity against human RPMI8226 cells at 10 uM after 48 hrs by SRB assay; type: functional; conditions: RPMI-8226, 48 h, read-out: GI
# [17] = test system: KM12; assay: Cytotoxicity against human KM12 cells at 10 uM after 48 hrs by SRB assay; type: functional; conditions: KM12, 48 h, read-out: GI
# [18] = test system: COLO 205; assay: Cytotoxicity against human COLO205 cells at 10 uM after 48 hrs by SRB assay; type: functional; conditions: COLO 205, 48 h, read-out: GI
# [19] = test system: LOX IMVI; assay: Cytotoxicity against human LOXIMVI cells at 10 uM after 48 hrs by SRB assay; type: functional; conditions: read-out: GI
# [20] = test system: MOLT-4; assay: Cytotoxicity against human MOLT4 cells at 10 uM after 48 hrs by SRB assay; type: functional; conditions: MOLT-4, 48 h, read-out: GI
# [21] = test system: T47D; assay: Cytotoxicity against human T47D cells at 10 uM after 48 hrs by SRB assay; type: functional; conditions: read-out: GI
# [22] = test system: HCT-15; assay: Cytotoxicity against human HCT15 cells at 10 uM after 48 hrs by SRB assay; type: functional; conditions: HCT-15, 48 h, read-out: GI
# [23] = test system: SK-MEL-5; assay: Cytotoxicity against human SK-MEL-5 cells at 10 uM after 48 hrs by SRB assay; type: functional; conditions: SK-MEL-5, 48 h, read-out: GI
# [24] = test system: SW-620; assay: Cytotoxicity against human SW620 cells at 10 uM after 48 hrs by SRB assay; type: functional; conditions: SW-620, 48 h, read-out: GI
# [25] = test system: K562; assay: Cytotoxicity against human K562 cells at 10 uM after 48 hrs by SRB assay; type: functional; conditions: K562, 48 h, read-out: GI
# [26] = test system: BT-549; assay: Cytotoxicity against human BT549 cells at 10 uM after 48 hrs by SRB assay; type: functional; conditions: BT-549, 48 h, read-out: GI
# [27] = test system: HOP-92; assay: Cytotoxicity against human HOP92 cells at 10 uM after 48 hrs by SRB assay; type: functional; conditions: HOP-92, 48 h, read-out: GI
# [28] = test system: TK-10; assay: Cytotoxicity against human TK10 cells at 10 uM after 48 hrs by SRB assay; type: functional; conditions: TK-10, 48 h, read-out: GI
# [29] = test system: SR; assay: Cytotoxicity against human SR cells at 10 uM after 48 hrs by SRB assay; type: functional; conditions: read-out: GI
# [30] = test system: OVCAR-4; assay: Cytotoxicity against human OVCAR4 cells at 10 uM after 48 hrs by SRB assay; type: functional; conditions: OVCAR-4, 48 h, read-out: GI
# [31] = test system: NCI-H522; assay: Cytotoxicity against human NCI-H522 cells at 10 uM after 48 hrs by SRB assay; type: functional; conditions: NCI-H522, 48 h, read-out: GI
# [32] = test system: SK-MEL-2; assay: Cytotoxicity against human SK-MEL-2 cells at 10 uM after 48 hrs by SRB assay; type: functional; conditions: SK-MEL-2, 48 h, read-out: GI
# [33] = test system: Malme-3M; assay: Cytotoxicity against human MALME-3M cells at 10 uM after 48 hrs by SRB assay; type: functional; conditions: read-out: GI
# [34] = test system: MDA-MB-231; assay: Cytotoxicity against human MDA-MB-231 cells at 10 uM after 48 hrs by SRB assay; type: functional; conditions: MDA-MB-231, 48 h, read-out: GI
# [35] = test system: NCI-H322M; assay: Cytotoxicity against human NCI-H322M cells at 10 uM after 48 hrs by SRB assay; type: functional; conditions: read-out: GI
# [36] = test system: SF-295; assay: Cytotoxicity against human SF295 cells at 10 uM after 48 hrs by SRB assay; type: functional; conditions: SF-295, 48 h, read-out: GI
# [37] = test system: HOP-62; assay: Cytotoxicity against human HOP62 cells at 10 uM after 48 hrs by SRB assay; type: functional; conditions: HOP-62, 48 h, read-out: GI
# [38] = test system: HL-60(TB); assay: Cytotoxicity against human HL-60(TB) cells at 10 uM after 48 hrs by SRB assay; type: functional; conditions: HL-60, 48 h, read-out: GI
# [39] = test system: OVCAR-3; assay: Cytotoxicity against human OVCAR3 cells at 10 uM after 48 hrs by SRB assay; type: functional; conditions: OVCAR-3, 48 h, read-out: GI
# [40] = test system: UACC-257; assay: Cytotoxicity against human UACC257 cells at 10 uM after 48 hrs by SRB assay; type: functional; conditions: UACC-257, 48 h, read-out: GI
# [41] = test system: UACC-62; assay: Cytotoxicity against human UACC62 cells at 10 uM after 48 hrs by SRB assay; type: functional; conditions: UACC-62, 48 h, read-out: GI
# [42] = test system: OVCAR-5; assay: Cytotoxicity against human OVCAR5 cells at 10 uM after 48 hrs by SRB assay; type: functional; conditions: OVCAR-5, 48 h, read-out: GI
# [43] = test system: SNB-75; assay: Cytotoxicity against human SNB75 cells at 10 uM after 48 hrs by SRB assay; type: functional; conditions: SNB-75, 48 h, read-out: GI
# [44] = test system: HCT-116; assay: Cytotoxicity against human HCT116 cells at 10 uM after 48 hrs by SRB assay; type: functional; conditions: HCT-116, 48 h, read-out: GI
# [45] = test system: NCI/ADR-RES; assay: Cytotoxicity against human NCI/ADR-RES cells at 10 uM after 48 hrs by SRB assay; type: functional; conditions: read-out: GI
# [46] = test system: CCRF-CEM; assay: Cytotoxicity against human CCRF-CEM cells at 10 uM after 48 hrs by SRB assay; type: functional; conditions: read-out: GI
# [47] = test system: SNB-19; assay: Cytotoxicity against human SNB19 cells at 10 uM after 48 hrs by SRB assay; type: functional; conditions: SNB-19, 48 h, read-out: GI
# [48] = test system: IGROV-1; assay: Cytotoxicity against human IGROV1 cells at 10 uM after 48 hrs by SRB assay; type: functional; conditions: IGROV-1, 48 h, read-out: GI
# [49] = test system: HT-29; assay: Cytotoxicity against human HT-29 cells at 10 uM after 48 hrs by SRB assay; type: functional; conditions: HT-29, 48 h, read-out: GI
# [50] = Cytotoxicity against human EKVX cells at 10 uM after 48 hrs by SRB assay; type: functional; conditions: read-out: GI
# [51] = test system: MDA-MB-435; assay: Cytotoxicity against human MDA-MB-435 cells at 10 uM after 48 hrs by SRB assay; type: functional; conditions: MDA-MB-435, 48 h, read-out: GI
# [52] = test system: MCF7; assay: Cytotoxicity against human MCF7 cells at 10 uM after 48 hrs by SRB assay; type: functional; conditions: MCF7, 48 h, read-out: GI
# [53] = test system: A549; assay: Cytotoxicity against human A549 cells at 10 uM after 48 hrs by SRB assay; type: functional; conditions: A549, 48 h, read-out: GI
compound,measurement,setting,value
C=CCn1c(C)nc2ccc(Nc3nc(N4CCCCC4)nc4ccccc34)cc21,logD,[1],2.72
O=c1[nH]cc(F)c(=O)[nH]1 [FLUOROURACIL],inhibition of growth at 10 µM,[2],58.2%
same,inhibition of growth at 10 µM,[3],69.5%
same,inhibition of growth at 10 µM,[4],54%
same,inhibition of growth at 10 µM,[5],59%
same,inhibition of growth at 10 µM,[6],34.3%
same,inhibition of growth at 10 µM,[7],39%
same,inhibition of growth at 10 µM,[8],48.7%
same,inhibition of growth at 10 µM,[9],35.5%
same,inhibition of growth at 10 µM,[10],39.3%
same,inhibition of growth at 10 µM,[11],39.4%
same,inhibition of growth at 10 µM,[12],13%
same,inhibition of growth at 10 µM,[13],50.3%
same,inhibition of growth at 10 µM,[14],41.3%
same,inhibition of growth at 10 µM,[15],77.5%
same,inhibition of growth at 10 µM,[16],41.4%
same,inhibition of growth at 10 µM,[17],40.7%
same,inhibition of growth at 10 µM,[18],40.2%
same,inhibition of growth at 10 µM,[19],30.4%
same,inhibition of growth at 10 µM,[20],43.1%
same,inhibition of growth at 10 µM,[21],56.7%
same,inhibition of growth at 10 µM,[22],26.5%
same,inhibition of growth at 10 µM,[23],33.7%
same,inhibition of growth at 10 µM,[24],50.1%
same,inhibition of growth at 10 µM,[25],42.3%
same,inhibition of growth at 10 µM,[26],37.8%
same,inhibition of growth at 10 µM,[27],50.6%
same,inhibition of growth at 10 µM,[28],66.9%
same,inhibition of growth at 10 µM,[29],24.8%
same,inhibition of growth at 10 µM,[30],59.4%
same,inhibition of growth at 10 µM,[31],58%
same,inhibition of growth at 10 µM,[32],95.5%
same,inhibition of growth at 10 µM,[33],58.2%
same,inhibition of growth at 10 µM,[34],78.1%
same,inhibition of growth at 10 µM,[35],59.5%
same,inhibition of growth at 10 µM,[36],69.1%
same,inhibition of growth at 10 µM,[37],47.8%
same,inhibition of growth at 10 µM,[38],47.9%
same,inhibition of growth at 10 µM,[39],47.4%
same,inhibition of growth at 10 µM,[40],19.5%
same,inhibition of growth at 10 µM,[41],39.7%
same,inhibition of growth at 10 µM,[42],44.3%
same,inhibition of growth at 10 µM,[43],65.9%
same,inhibition of growth at 10 µM,[44],17.8%
same,inhibition of growth at 10 µM,[45],47.6%
same,inhibition of growth at 10 µM,[46],57.1%
same,inhibition of growth at 10 µM,[47],65.9%
same,inhibition of growth at 10 µM,[48],51.2%
same,inhibition of growth at 10 µM,[49],27.1%
same,inhibition of growth at 10 µM,[50],58.4%
same,inhibition of growth at 10 µM,[51],36.6%
same,inhibition of growth at 10 µM,[52],11.5%
same,inhibition of growth at 10 µM,[53],34.2%
